Patent publication US11000033B2, “Ketone or oxime compound, and herbicide” (NISSAN CHEMICAL CORPORATION, priority 2014, dated 2021)

Legend:
Type in all cases: in vivo
[1] = test system: Setaria viridis; experiment: Test Example 4: herbicidal effect by soil treatment (symbol G); conditions: application herbicide amount 320 g/ha
Summary of the method: (§1)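 Seeds were sown in sterilized diluvial soil, covered with about 1.5 cm of soil, and the soil surface was sprayed with a water-diluted emulsion of the compound at a predetermined rate. Plants grew in a greenhouse at 25° C. to 30° C.; effects were scored visually 3 weeks after application.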

[2] = test system: Stellaria media; experiment: Test Example 5: herbicidal effect by foliage application, plastic box (symbol P); conditions: 320 g/ha, 3 weeks after application
Summary of the method: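 Post-emergence spray; diluvial soil (sterilized), ~1.5 cm seed cover; greenhouse 25–30° C; 14-day-old plants; water-diluted emulsion at predetermined dose; visual score at 3 wk post-treatment.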

[3] = test system: Cyperus difformis; experiment: Test Example 3: herbicidal effect by foliage application, Wagner pot (symbol E); conditions: application herbicide amount 320 g/ha
Summary of the method: (§2)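 Herbicidal activity was rated three weeks after a foliar spray of diluted emulsion concentrate, applied at a predetermined dose to plants grown for 14 days from seed in waterlogged alluvial soil within a 25–30 °C greenhouse.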

[4] = test system: wheat; experiment: Test Example 5: effect on crop by foliage application, plastic box (symbol e); conditions: 320 g/ha, 3 weeks after application
Summary of the method: (§3)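 Soil: sterilized diluvial. Container: plastic box, 21 × 13 cm, 7 cm deep. Sowing: spot-like, ~1.5 cm cover. Growth: greenhouse, 25° C. to 30° C.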

[5] = test system: Leptochloa chinensis; experiment: Test Example 3: herbicidal effect by foliage application, Wagner pot (symbol D); conditions: application herbicide amount 320 g/ha
Summary of the method: as §2

[6] = test system: Monochoria vaginalis; experiment: Test Example 2: herbicidal activity, application during weed generation in submerged conditions (symbol C); conditions: Table 23; application herbicide amount 320 g/ha; grade 0-5 by criteria of Test Example 1
Summary of the method: (§4)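 Visual herbicidal ratings, taken three weeks after dosing, reflect post-emergence water-surface application to seedlings at one to two leaves. Conditions: co-sown weeds in alluvial soil flooded to 4 cm, greenhouse held at 25° C. to 30° C.; compound given as water-diluted emulsion at a fixed herbicide amount.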

[7] = test system: Echinochloa crus-galli var. crus-galli; experiment: Test Example 3: herbicidal effect by foliage application, Wagner pot (symbol H); conditions: application herbicide amount 320 g/ha
Summary of the method: as §2

[8] = test system: Veronica persica; experiment: Test Example 4: herbicidal effect by soil treatment (symbol R); conditions: application herbicide amount 320 g/ha
Summary of the method: as §1

[9] = test system: Abutilon theophrasti; experiment: Test Example 4: herbicidal effect by soil treatment (symbol M); conditions: application herbicide amount 320 g/ha
Summary of the method: as §1

[10] = test system: rapeseed; experiment: Test Example 5: effect on crop by foliage application, plastic box (symbol g); conditions: 320 g/ha, 3 weeks after application
Summary of the method: as §3

[11] = test system: Stellaria media; experiment: Test Example 4: herbicidal effect by soil treatment (symbol P); conditions: application herbicide amount 320 g/ha
Summary of the method: as §1

[12] = test system: corn; experiment: Test Example 4: effect on crop by soil treatment (symbol c); conditions: application herbicide amount 320 g/ha
Summary of the method: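 Sterilized diluvial soil, spot sowing, ~1.5 cm soil cover; greenhouse 25–30° C.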

[13] = test system: Echinochloa oryzacola Vasing.; experiment: Test Example 2: herbicidal activity, application during weed generation in submerged conditions (symbol A); conditions: Table 23; application herbicide amount 320 g/ha; grade 0-5 by criteria of Test Example 1
Summary of the method: as §4

[14] = test system: Digitaria ciliaris; experiment: Test Example 4: herbicidal effect by soil treatment (symbol F); conditions: application herbicide amount 320 g/ha
Summary of the method: as §1

[15] = test system: Alopecurus myosuroides; experiment: Test Example 4: herbicidal effect by soil treatment (symbol J); conditions: application herbicide amount 320 g/ha
Summary of the method: as §1

CCc1cc(-c2ccc(Cl)cc2)cc(C)c1C1=C(OC(=O)N2CCOCC2)CC(CC(C)=NOC)C1=O (mixture of isomers) [6-064]
G: Setaria viridis, herbicidal effect grade [1]: 5 (Herbicidal ratio of 90% or more (almost completely withered))
P: Stellaria media, herbicidal effect (criteria of Test Example 1) [2]: 0 (Herbicidal ratio of 5% or lower (almost no effect))
herbicidal effect on E, grade 0-5 [3]: 0 (Herbicidal ratio of 5% or lower (almost no effect))
e: wheat, effect on crop (criteria of Test Example 1) [4]: 5 (Herbicidal ratio of 90% or more (almost completely withered))
herbicidal effect on D (Leptochloa chinensis), grade 0-5 [5]: 5 (Herbicidal ratio of 90% or more (almost completely withered))
Herbicidal effect grade, C: Monochoria vaginalis [6]: 0 (Herbicidal ratio of 5% or lower (almost no effect))
herbicidal effect on H (Echinochloa crus-galli var. crus-galli), grade 0-5 [7]: 5 (Herbicidal ratio of 90% or more (almost completely withered))
R: Veronica persica, herbicidal effect grade [8]: 0 (Herbicidal ratio of 5% or lower (almost no effect))
M: Abutilon theophrasti, herbicidal effect grade [9]: 0 (Herbicidal ratio of 5% or lower (almost no effect))
g: rapeseed, effect on crop (criteria of Test Example 1) [10]: 3 (Herbicidal ratio of 40% or higher and lower than 70%)
P: Stellaria media, herbicidal effect grade [11]: 0 (Herbicidal ratio of 5% or lower (almost no effect))
c: corn, effect on crop grade [12]: 0 (Herbicidal ratio of 5% or lower (almost no effect))
Herbicidal effect grade, A: Echinochloa oryzacola Vasing. [13]: 4 (Herbicidal ratio of 70% or higher and lower than 90%)
F: Digitaria ciliaris, herbicidal effect grade [14]: 5 (Herbicidal ratio of 90% or more (almost completely withered))
J: Alopecurus myosuroides, herbicidal effect grade [15]: 4 (Herbicidal ratio of 70% or higher and lower than 90%)

CON=C(C)CC1CC(O)=C(c2c(C)cc(Oc3ccccc3)cc2C)C1=O (stereo not drawn) [6-052]
G: Setaria viridis, herbicidal effect grade [1]: 3 (Herbicidal ratio of 40% or higher and lower than 70%)
P: Stellaria media, herbicidal effect grade [2]: 0 (Herbicidal ratio of 5% or lower (almost no effect))
herbicidal effect on E, grade 0-5 [3]: 3 (Herbicidal ratio of 40% or higher and lower than 70%)
e: wheat, effect on crop grade [4]: 0 (Herbicidal ratio of 5% or lower (almost no effect))
herbicidal effect on D (Leptochloa chinensis), grade 0-5 [5]: 5 (Herbicidal ratio of 90% or more (almost completely withered))
Herbicidal effect grade, C: Monochoria vaginalis [6]: 0 (Herbicidal ratio of 5% or lower (almost no effect))
herbicidal effect on H (Echinochloa crus-galli var. crus-galli), grade 0-5 [7]: 5 (Herbicidal ratio of 90% or more (almost completely withered))
R: Veronica persica, herbicidal effect grade [8]: 0 (Herbicidal ratio of 5% or lower (almost no effect))
M: Abutilon theophrasti, herbicidal effect grade [9]: 0 (Herbicidal ratio of 5% or lower (almost no effect))
g: rapeseed, effect on crop grade [10]: 3 (Herbicidal ratio of 40% or higher and lower than 70%)
P: Stellaria media, herbicidal effect grade [11]: 2 (Herbicidal ratio of 20% or higher and lower than 40%)
c: corn, effect on crop grade [12]: 0 (Herbicidal ratio of 5% or lower (almost no effect))
Herbicidal effect grade, A: Echinochloa oryzacola Vasing. [13]: 3 (Herbicidal ratio of 40% or higher and lower than 70%)
F: Digitaria ciliaris, herbicidal effect grade [14]: 4 (Herbicidal ratio of 70% or higher and lower than 90%)
J: Alopecurus myosuroides, herbicidal effect grade [15]: 0 (Herbicidal ratio of 5% or lower (almost no effect))

CON=C(C)CC1CC(O)=C(c2c(C)cc(C(C)=NOC)cc2C)C1=O (stereo not drawn) [6-065]
G: Setaria viridis, herbicidal effect grade [1]: 5 (Herbicidal ratio of 90% or more (almost completely withered))
P: Stellaria media, herbicidal effect (criteria of Test Example 1) [2]: 3 (Herbicidal ratio of 40% or higher and lower than 70%)
herbicidal effect on E, grade 0-5 [3]: 5 (Herbicidal ratio of 90% or more (almost completely withered))
e: wheat, effect on crop (criteria of Test Example 1) [4]: 5 (Herbicidal ratio of 90% or more (almost completely withered))
herbicidal effect on D (Leptochloa chinensis), grade 0-5 [5]: 5 (Herbicidal ratio of 90% or more (almost completely withered))
Herbicidal effect grade, C: Monochoria vaginalis [6]: 2 (Herbicidal ratio of 20% or higher and lower than 40%)
herbicidal effect on H (Echinochloa crus-galli var. crus-galli), grade 0-5 [7]: 5 (Herbicidal ratio of 90% or more (almost completely withered))
R: Veronica persica, herbicidal effect grade [8]: 3 (Herbicidal ratio of 40% or higher and lower than 70%)
M: Abutilon theophrasti, herbicidal effect grade [9]: 0 (Herbicidal ratio of 5% or lower (almost no effect))
g: rapeseed, effect on crop (criteria of Test Example 1) [10]: 4 (Herbicidal ratio of 70% or higher and lower than 90%)
P: Stellaria media, herbicidal effect grade [11]: 4 (Herbicidal ratio of 70% or higher and lower than 90%)
c: corn, effect on crop grade [12]: 5 (Herbicidal ratio of 90% or more (almost completely withered))
Herbicidal effect grade, A: Echinochloa oryzacola Vasing. [13]: 5 (Herbicidal ratio of 90% or more (almost completely withered))
F: Digitaria ciliaris, herbicidal effect grade [14]: 5 (Herbicidal ratio of 90% or more (almost completely withered))
J: Alopecurus myosuroides, herbicidal effect grade [15]: 5 (Herbicidal ratio of 90% or more (almost completely withered))

CON=C(C)CC1CC(O)=C(c2c(C)cc(-n3cccn3)cc2C)C1=O (stereo not drawn) [6-073]
G: Setaria viridis, herbicidal effect grade [1]: 5 (Herbicidal ratio of 90% or more (almost completely withered))
P: Stellaria media, herbicidal effect (criteria of Test Example 1) [2]: 2 (Herbicidal ratio of 20% or higher and lower than 40%)
herbicidal effect on E, grade 0-5 [3]: 5 (Herbicidal ratio of 90% or more (almost completely withered))
e: wheat, effect on crop (criteria of Test Example 1) [4]: 3 (Herbicidal ratio of 40% or higher and lower than 70%)
herbicidal effect on D (Leptochloa chinensis), grade 0-5 [5]: 5 (Herbicidal ratio of 90% or more (almost completely withered))
Herbicidal effect grade, C: Monochoria vaginalis [6]: 1 (Herbicidal ratio of 5% or higher and lower than 20%)
herbicidal effect on H (Echinochloa crus-galli var. crus-galli), grade 0-5 [7]: 5 (Herbicidal ratio of 90% or more (almost completely withered))
R: Veronica persica, herbicidal effect grade [8]: 0 (Herbicidal ratio of 5% or lower (almost no effect))
M: Abutilon theophrasti, herbicidal effect grade [9]: 0 (Herbicidal ratio of 5% or lower (almost no effect))
g: rapeseed, effect on crop (criteria of Test Example 1) [10]: 4 (Herbicidal ratio of 70% or higher and lower than 90%)
P: Stellaria media, herbicidal effect grade [11]: 0 (Herbicidal ratio of 5% or lower (almost no effect))
c: corn, effect on crop grade [12]: 3 (Herbicidal ratio of 40% or higher and lower than 70%)
Herbicidal effect grade, A: Echinochloa oryzacola Vasing. [13]: 4 (Herbicidal ratio of 70% or higher and lower than 90%)
F: Digitaria ciliaris, herbicidal effect grade [14]: 5 (Herbicidal ratio of 90% or more (almost completely withered))
J: Alopecurus myosuroides, herbicidal effect grade [15]: 2 (Herbicidal ratio of 20% or higher and lower than 40%)

CON=C(C)CC1CC(O)=C(c2c(C)cc(-n3cncn3)cc2C)C1=O (stereo not drawn) [6-074]
G: Setaria viridis, herbicidal effect grade [1]: 2 (Herbicidal ratio of 20% or higher and lower than 40%)
P: Stellaria media, herbicidal effect (criteria of Test Example 1) [2]: 0 (Herbicidal ratio of 5% or lower (almost no effect))
herbicidal effect on E, grade 0-5 [3]: 2 (Herbicidal ratio of 20% or higher and lower than 40%)
e: wheat, effect on crop (criteria of Test Example 1) [4]: 0 (Herbicidal ratio of 5% or lower (almost no effect))
herbicidal effect on D (Leptochloa chinensis), grade 0-5 [5]: 5 (Herbicidal ratio of 90% or more (almost completely withered))
Herbicidal effect grade, C: Monochoria vaginalis [6]: 0 (Herbicidal ratio of 5% or lower (almost no effect))
herbicidal effect on H (Echinochloa crus-galli var. crus-galli), grade 0-5 [7]: 4 (Herbicidal ratio of 70% or higher and lower than 90%)
R: Veronica persica, herbicidal effect grade [8]: 0 (Herbicidal ratio of 5% or lower (almost no effect))
M: Abutilon theophrasti, herbicidal effect grade [9]: 0 (Herbicidal ratio of 5% or lower (almost no effect))
g: rapeseed, effect on crop (criteria of Test Example 1) [10]: 0 (Herbicidal ratio of 5% or lower (almost no effect))
P: Stellaria media, herbicidal effect grade [11]: 0 (Herbicidal ratio of 5% or lower (almost no effect))
c: corn, effect on crop grade [12]: 0 (Herbicidal ratio of 5% or lower (almost no effect))
Herbicidal effect grade, A: Echinochloa oryzacola Vasing. [13]: 1 (Herbicidal ratio of 5% or higher and lower than 20%)
F: Digitaria ciliaris, herbicidal effect grade [14]: 0 (Herbicidal ratio of 5% or lower (almost no effect))
J: Alopecurus myosuroides, herbicidal effect grade [15]: 0 (Herbicidal ratio of 5% or lower (almost no effect))
